Assay: Safety endpoints (treatment-emergent AEs, CTCAE v4) in three phase 1 studies
Format: in vivo, human
Excerpt: AEs were collected throughout the trials, graded using Common Terminology Criteria for Adverse Events v4. Treatment-emergent AEs (TEAEs), defined as any AE that started after the first dose of study treatment or that started prior to dosing and worsened during on treatment period (by investigator report of a change in intensity) following exposure to treatment, were included in the analysis.
The rash AE endpoint pooled the following Medical Dictionary for Regulatory Activities (MedDRA) preferred terms: rash maculo-papular, rash macular, rash, rash generalized, rash papular and rash pruritic, while the diarrhea AE and hyperglycemia AE included the MedDRA preferred terms diarrhea and hyperglycemia, respectively.
The grade selection for diarrhea and rash was based on clinical relevance in terms of limiting quality of life; for hyperglycemia the grade was higher considering this is a pharmacodynamic effect of AKT inhibition and often seen as asymptomatic change of laboratory value only.

[1] = Continuous BID, 80 mg, N=8, pooled studies
[2] = Continuous BID, 160 mg, N=5, pooled studies
[3] = Continuous BID, 240 mg, N=13, pooled studies
[4] = Continuous BID, 320 mg, N=18, pooled studies
[5] = Continuous BID, 400 mg, N=16, pooled studies
[6] = Continuous BID, 480 mg, N=6, pooled studies
[7] = Continuous BID, 600 mg, N=2, pooled studies
[8] = Total, all doses and schedules, N=277
[9] = [2/5] BID, 640 mg, N=14, pooled studies
[10] = [2/5] BID, 800 mg, N=14, pooled studies
[11] = [4/3] BID, 360 mg, N=8, pooled studies
[12] = [4/3] BID, 480 mg, N=163, pooled studies
[13] = [4/3] BID, 640 mg, N=10, pooled studies
[14] = in total, across all doses and schedules

NC1(C(=O)N[C@@H](CCO)c2ccc(Cl)cc2)CCN(c2ncnc3[nH]ccc23)CC1 [capivasertib, 4-amino-N-[(1S)-1-(4-chlorophenyl)-3-hydroxypropyl]-1-(7H-pyrrolo[2,3-d]pyrimidin– 4-yl)piperidine-4-carboxamide]
AE grade ≥ 1 [1]: 8 (100) n (%)
AE grade ≥ 3 [1]: 2 (25.0) n (%)
AEDD (AE leading to dose discontinuation) [1]: 0 n (%)
AEDM (AE leading to dose modification) [1]: 2 (25.0) n (%)
Diarrhea AE grade ≥ 2 [1]: 0 n (%)
Hyperglycemia AE grade ≥ 3 [1]: 0 n (%)
Increased BG > 13.9 mmol/L [1]: 0 n (%)
Rash AE grade ≥ 2 [1]: 1 (12.5) n (%)
SAE [1]: 2 (25.0) n (%)
AE grade ≥ 1 [2]: 5 (100) n (%)
AE grade ≥ 3 [2]: 0 n (%)
AEDD (AE leading to dose discontinuation) [2]: 0 n (%)
AEDM (AE leading to dose modification) [2]: 1 (20.0) n (%)
Diarrhea AE grade ≥ 2 [2]: 0 n (%)
Hyperglycemia AE grade ≥ 3 [2]: 0 n (%)
Increased BG > 13.9 mmol/L [2]: 0 n (%)
Rash AE grade ≥ 2 [2]: 1 (20.0) n (%)
SAE [2]: 1 (20.0) n (%)
AE grade ≥ 1 [3]: 12 (92.3) n (%)
AE grade ≥ 3 [3]: 4 (30.8) n (%)
AEDD (AE leading to dose discontinuation) [3]: 1 (7.7) n (%)
AEDM (AE leading to dose modification) [3]: 2 (15.4) n (%)
Diarrhea AE grade ≥ 2 [3]: 4 (30.8) n (%)
Hyperglycemia AE grade ≥ 3 [3]: 2 (15.4) n (%)
Increased BG > 13.9 mmol/L [3]: 4 (30.8) n (%)
Rash AE grade ≥ 2 [3]: 3 (23.1) n (%)
SAE [3]: 0 n (%)
AE grade ≥ 1 [4]: 18 (100) n (%)
AE grade ≥ 3 [4]: 10 (55.6) n (%)
AEDD (AE leading to dose discontinuation) [4]: 3 (16.7) n (%)
AEDM (AE leading to dose modification) [4]: 8 (44.4) n (%)
Diarrhea AE grade ≥ 2 [4]: 5 (27.8) n (%)
Hyperglycemia AE grade ≥ 3 [4]: 2 (11.1) n (%)
Increased BG > 13.9 mmol/L [4]: 3 (16.7) n (%)
Rash AE grade ≥ 2 [4]: 5 (27.8) n (%)
SAE [4]: 4 (22.2) n (%)
AE grade ≥ 1 [5]: 16 (100) n (%)
AE grade ≥ 3 [5]: 15 (93.8) n (%)
AEDD (AE leading to dose discontinuation) [5]: 7 (43.8) n (%)
AEDM (AE leading to dose modification) [5]: 15 (93.8) n (%)
Diarrhea AE grade ≥ 2 [5]: 10 (62.5) n (%)
Hyperglycemia AE grade ≥ 3 [5]: 4 (25.0) n (%)
Increased BG > 13.9 mmol/L [5]: 7 (43.8) n (%)
Rash AE grade ≥ 2 [5]: 8 (50.0) n (%)
SAE [5]: 6 (37.5) n (%)
AE grade ≥ 1 [6]: 6 (100) n (%)
AE grade ≥ 3 [6]: 6 (100) n (%)
AEDD (AE leading to dose discontinuation) [6]: 4 (66.7) n (%)
AEDM (AE leading to dose modification) [6]: 5 (83.3) n (%)
Diarrhea AE grade ≥ 2 [6]: 5 (83.3) n (%)
Hyperglycemia AE grade ≥ 3 [6]: 2 (33.3) n (%)
Increased BG > 13.9 mmol/L [6]: 2 (33.3) n (%)
Rash AE grade ≥ 2 [6]: 3 (50.0) n (%)
SAE [6]: 6 (100) n (%)
AE grade ≥ 1 [7]: 2 (100) n (%)
AE grade ≥ 3 [7]: 2 (100) n (%)
AEDD (AE leading to dose discontinuation) [7]: 2 (100) n (%)
AEDM (AE leading to dose modification) [7]: 1 (50.0) n (%)
Diarrhea AE grade ≥ 2 [7]: 1 (50.0) n (%)
Hyperglycemia AE grade ≥ 3 [7]: 0 n (%)
Increased BG > 13.9 mmol/L [7]: 1 (50.0) n (%)
Rash AE grade ≥ 2 [7]: 2 (100) n (%)
SAE [7]: 2 (100) n (%)
AE grade ≥ 1 [8]: 274 (98.9) n (%)
AE grade ≥ 3 [8]: 182 (65.7) n (%)
AEDD (AE leading to dose discontinuation) [8]: 51 (18.4) n (%)
AEDM (AE leading to dose modification) [8]: 139 (50.2) n (%)
Diarrhea AE grade ≥ 2 [8]: 102 (36.8) n (%)
Hyperglycemia AE grade ≥ 3 [8]: 72 (26.0) n (%)
Increased BG > 13.9 mmol/L [8]: 126 (45.5) n (%)
Rash AE grade ≥ 2 [8]: 73 (26.4) n (%)
SAE [8]: 107 (38.6) n (%)
AE grade ≥ 1 [9]: 14 (100) n (%)
AE grade ≥ 3 [9]: 11 (78.6) n (%)
AEDD (AE leading to dose discontinuation) [9]: 2 (14.3) n (%)
AEDM (AE leading to dose modification) [9]: 2 (14.3) n (%)
Diarrhea AE grade ≥ 2 [9]: 3 (21.4) n (%)
Hyperglycemia AE grade ≥ 3 [9]: 7 (50.0) n (%)
Increased BG > 13.9 mmol/L [9]: 8 (57.1) n (%)
Rash AE grade ≥ 2 [9]: 2 (14.3) n (%)
SAE [9]: 7 (50.0) n (%)
AE grade ≥ 1 [10]: 14 (100) n (%)
AE grade ≥ 3 [10]: 8 (57.1) n (%)
AEDD (AE leading to dose discontinuation) [10]: 1 (7.1) n (%)
AEDM (AE leading to dose modification) [10]: 8 (57.1) n (%)
Diarrhea AE grade ≥ 2 [10]: 3 (21.4) n (%)
Hyperglycemia AE grade ≥ 3 [10]: 5 (35.7) n (%)
Increased BG > 13.9 mmol/L [10]: 9 (64.3) n (%)
Rash AE grade ≥ 2 [10]: 2 (14.3) n (%)
SAE [10]: 5 (35.7) n (%)
AE grade ≥ 1 [11]: 6 (75.0) n (%)
AE grade ≥ 3 [11]: 3 (37.5) n (%)
AEDD (AE leading to dose discontinuation) [11]: 0 n (%)
AEDM (AE leading to dose modification) [11]: 3 (37.5) n (%)
Diarrhea AE grade ≥ 2 [11]: 4 (50.0) n (%)
Hyperglycemia AE grade ≥ 3 [11]: 1 (12.5) n (%)
Increased BG > 13.9 mmol/L [11]: 3 (37.5) n (%)
Rash AE grade ≥ 2 [11]: 1 (12.5) n (%)
SAE [11]: 0 n (%)
AE grade ≥ 1 [12]: 163 (100) n (%)
AE grade ≥ 3 [12]: 114 (69.9) n (%)
AEDD (AE leading to dose discontinuation) [12]: 27 (16.6) n (%)
AEDM (AE leading to dose modification) [12]: 90 (55.2) n (%)
Diarrhea AE grade ≥ 2 [12]: 64 (39.3) n (%)
Hyperglycemia AE grade ≥ 3 [12]: 45 (27.6) n (%)
Increased BG > 13.9 mmol/L [12]: 82 (50.3) n (%)
Rash AE grade ≥ 2 [12]: 45 (27.6) n (%)
SAE [12]: 68 (41.7) n (%)
AE grade ≥ 1 [13]: 10 (100) n (%)
AE grade ≥ 3 [13]: 7 (70.0) n (%)
AEDD (AE leading to dose discontinuation) [13]: 4 (40) n (%)
AEDM (AE leading to dose modification) [13]: 2 (20.0) n (%)
Diarrhea AE grade ≥ 2 [13]: 3 (30.0) n (%)
Hyperglycemia AE grade ≥ 3 [13]: 4 (40.0) n (%)
Increased BG > 13.9 mmol/L [13]: 7 (70.0) n (%)
Rash AE grade ≥ 2 [13]: 0 n (%)
SAE [13]: 6 (60.0) n (%)
patients with AE grade ≥ 1 [14]: 98.9%
patients with AEs grade ≥ 3 [14]: 65.7%
patients with AEs leading to dose discontinuation [14]: 18.4%
patients with AEs leading to dose modification [14]: 50.2%
patients with SAEs [14]: 38.6%
patients with diarrhea AE grade ≥ 2 [14]: 36.8%
patients with hyperglycemia grade ≥ 3 [14]: 26.0%
patients with increased blood glucose > 13.9 mmol/L [14]: 45.5%
patients with rash AE grade ≥ 2 [14]: 26.4%
